Like-named read-outs stand apart in the source and are kept apart here. Bridge positions count the residues as written; N and C are the ends. Square brackets hold non-standard residues; d marks the D form. Peptide text beside a SMILES is read from it.
Columns and labels:
[1] = system: HUVEC migration; test: VEGF-mediated HUVEC transwell migration assay; assay type: cell-based, human
Procedure: Figure 5 Cell migration on VEGF-mediated HUVECs. The percentage of HUVEC migration was analyzed using Prism Version 6 (GraphPad). (A–T) VEGF was used as a positive control with 100% HUVEC migration. All peptides were tested at concentrations ranging from 0.001–50 μM except for cilengitide and octreotide, which were tested in 10-fold dilutions from 10 μM. Peptides were added in the presence of 0.3 nM VEGF (bottom chamber). Data are shown as mean ± SD (n ≥ 3). Data were normalized to the mean VEGF control. P-values are represented as follows: ****p ≤ 0.0001, ***p ≤ 0.001, **p ≤ 0.01, and *p ≤ 0.05.
A cell migration assay was performed as described by Chan et al.[45] HUVECs between passages three and ten were used. Briefly, initial peptide concentrations of 10–500 μM were prepared for all peptides except SFTI-SST-01, MCo-SST-01, SFTI-SST-02, MCo-SST-02, SFTI-PEDF, MCo-PEDF (0.01–500 μM), cilengitide, octreotide, and MCoAA-02 (1 × 10^−7 M–100 μM). To the apical well, 100 μL of 1 × 10^5 cells/well were seeded and 600 μL of medium supplemented with or without 0.3 nM VEGF (Sigma, catalogue no. V7259) was added to the basolateral well. The well containing cells with 0.1% FBS/EGM-2 basal medium was used as a negative control, and the well containing cells with 0.3 nM VEGF was used as a positive control. All peptides were stimulated with 0.3 nM VEGF. Experiments were done in triplicate. […]

[2] = system: HT-29; test: cells
Procedure: (§1) HUVECs (human umbilical vein endothelial cells) were cultured in EGM™-2 BulletKit™ supplemented with SingleQuots™ (supplements: growth factors, cytokines, antibiotics; Lonza) and 10% FBS (catalog no. FFBS-500; Scientifix). Both HT-29 and MCF-7 cells were cultured in 10% FBS/DMEM (Dulbecco’s Modified Eagle Medium) with 1% penicillin–streptomycin (5000 U/mL; Life Technologies), whereas PC3 cells (prostate cancer cells) were cultured in 10% FBS/RPMI (Roswell Park Memorial Institute) 1640 with 1% penicillin–streptomycin (5000 U/mL; Life Technologies). All cells were maintained at 37 °C in 5% CO2.
(§2) Cell cytotoxicity and proliferation assays were performed using similar methods to those described by Chan et al.[45]. All cells were maintained using the media conditions described above, and passages two to ten were used for all cell lines. For all cell lines, 5.0 × 10^3 cells/well (100 μL) and 1.5 × 10^3 cells/well (100 μL) were used for cell cytotoxicity and cell proliferation assays, respectively. All peptides (10 μL, at final concentrations ranging from 0.05–100 μM) and drugs, which included cilengitide, octreotide and sunitinib (at final concentrations ranging from 0.00001–100 μM), were used in both assays. Triton X-100 (0.1% (v/v); 10 μL) was used as a positive control. Cells were treated with fresh media the day after plating, before the addition of peptides, followed by a subsequent 2-h and 48-h incubation for cell cytotoxicity and cell proliferation, respectively. After different incubation periods, 3-(4, 5-dimethylthiazolyl-2)-2,5-diphenyltetrazolium bromide (MTT) (10 μL; 5 mg/mL in PBS) was added, and cells were incubated for a further 4 h. The supernatant was then removed and 100 μL DMSO added to solubilize formazan salts. Experiments were performed in triplicate. Cell numbers were recorded at 600 nm. All data represent average mean ± SD.

[3] = system: MCF-7; test: cells
Procedure: as §1, §2

[4] = system: HUVEC; test: cells
Procedure: as §1, §2

[5] = system: PC3; test: cells
Procedure: as §1, §2

[6] = Peptide stability assay in human serum; settings: for stability in human serum over 24 h: RP-HPLC peak height at 215 nm
Procedure: Figure 6 Chorionallantoic membrane and stability assays. (A) Comparison of blood vessel count of the linear and grafted peptides. Error bars indicate ± SD (n ≥ 6). […] A one-way ANOVA with Dunnett’s post-test using a multiple comparison test was used for statistical analysis. […] All peptides were compared to 0.3 nM VEGF (highlighted in grey), which is represented as 100% blood vessel growth. […] VEGF was used as the positive control, and octreotide and cilengitide as the negative controls. All images were taken with an original magnification of x16 on an Olympus SZX12 dissecting microscope with a light box. DP capture and DP manager software packages were used during image acquisition. (C) This graph illustrates the percentage of peptide remaining over 24 h in the serum stability assay. […] All data are represented as mean ± SD and were recorded in triplicate. Peptides labeled with an asterisk (*) were tested using the same method except with an additional step – dissolving the centrifuged pellet with 8 M guanidinium chloride before RP-HPLC analysis.
The overall procedures used to assess peptide stability are based on those described previously by Chan et al.[18] and Ji et al.[19]. A peptide concentration of 300 μM was used, and time points taken at 0, 2, 4, 8, 16, and 24 h. The stability of sunitinib was also examined using this method, except an additional step was added after the final centrifugation step, whereby the pellet was dissolved in 8 M guanidine hydrochloride (300 μL) prior to analysis with RP-HPLC; this additional step was adapted from Ji et al.[19]. Supernantants were analyzed on an Agilent RP-HPLC using a linear 1%/min gradient of 0–50% solvent B with a 0.3 mL/min Phenomenex column. Peak height was used for integration of data at 215 nm and each experiment was performed in triplicate.

[7] = read-out: IC50 ± S.D., 48 hours, HT-29, cell proliferation inhibition, MTT, 48-h incubation, 1.5 × 10^3 cells/well, triplicate, mean ± SD
[8] = read-out: IC50 ± S.D., 48 hours, MCF-7, cell proliferation inhibition, MTT, 48-h incubation, 1.5 × 10^3 cells/well, triplicate, mean ± SD
[9] = read-out: IC50 ± S.D., 48 hours, HUVEC, cell proliferation inhibition, MTT, 48-h incubation, 1.5 × 10^3 cells/well, triplicate, mean ± SD
[10] = read-out: IC50 ± S.D., 48 hours, PC3, cell proliferation inhibition, MTT, 48-h incubation, 1.5 × 10^3 cells/well, triplicate, mean ± SD
[11] = human serum, 300 μM, 24 h, triplicate

What does the source list for CC[C@H](C)[C@@H]1NC(=O)[C@@H]2CSSC[C@@H]3NC(=O)[C@H](C(C)C)NC(=O)CNC(=O)CNC(=O)[C@H](CC(=O)O)NC(=O)[C@H](CO)NC(=O)CNC(=O)[C@H](CO)NC(=O)CNC(=O)[C@@H]4CSSC[C@H](NC(=O)[C@H](CC(=O)O)NC(=O)[C@H](CO)NC(=O)[C@H](CC(=O)O)NC(=O)[C@H](CCCNC(=N)N)NC(=O)[C@H](CCCNC(=N)N)NC(=O)[C@H](CSSC[C@H](NC1=O)C(=O)N[C@@H](CCCNC(=N)N)C(=O)N[C@@H](Cc1ccc(O)cc1)C(=O)N[C@H](Cc1c[nH]c5ccccc15)C(=O)N[C@@H](CCCCN)C(=O)N[C@@H](C(C)C)C(=O)N4)NC(=O)[C@H](CCCCN)NC(=O)[C@H](CCCCN)NC(=O)[C@H](CC(C)C)NC(=O)[C@H]([C@@H](C)CC)NC(=O)[C@H](CCCCN)NC(=O)[C@@H]1CCCN1C3=O)C(=O)N1CCC[C@H]1C(=O)NCC(=O)N[C@@H](C)C(=O)N2 [MCo-SST-01] (cyclo(ACICRY[dW]KVCGSGSDGGVCPKILKKCRRDSDCPG); disulfide 2-19, 4-26, 10-32 (inferred); ring closure inferred)?
IC50 ([1]; transwell, 0.3 nM VEGF in bottom chamber, normalized to VEGF control = 100% migration, n ≥ 3, read-out: concentration giving 50% inhibition of HUVEC migration): 0.005 µM; IC50 [2, 7]: 74.13 ± 0.07 µM; IC50 [3, 8]: > 100 µM; IC50 [4, 9]: 17.12 ± 0.05 µM; IC50 [5, 10]: 85.44 ± 0.08 µM

With CC[C@H](C)[C@@H]1NC(=O)[C@@H]2CSSC[C@@H]3NC(=O)CNC(=O)[C@H](Cc4ccccc4)NC(=O)[C@@H]4CCCN4C(=O)[C@H](CCC(N)=O)NC(=O)[C@H](CC(N)=O)NC(=O)[C@H](CC(C)C)NC(=O)[C@H](Cc4c[nH]cn4)NC(=O)[C@H](Cc4ccc(O)cc4)NC(=O)CNC(=O)[C@@H]4CSSC[C@H](NC(=O)[C@H](CC(=O)O)NC(=O)[C@H](CO)NC(=O)[C@H](CC(=O)O)NC(=O)[C@H](CCCNC(=N)N)NC(=O)[C@H](CCCNC(=N)N)NC(=O)[C@H](CSSC[C@H](NC1=O)C(=O)N[C@@H](CCCNC(=N)N)C(=O)N[C@@H](Cc1ccc(O)cc1)C(=O)N[C@H](Cc1c[nH]c5ccccc15)C(=O)N[C@@H](CCCCN)C(=O)N[C@@H](C(C)C)C(=O)N4)NC(=O)[C@H](CCCCN)NC(=O)[C@H](CCCCN)NC(=O)[C@H](CC(C)C)NC(=O)[C@H]([C@@H](C)CC)NC(=O)[C@H](CCCCN)NC(=O)[C@@H]1CCCN1C3=O)C(=O)N1CCC[C@H]1C(=O)NCC(=O)N[C@@H](C)C(=O)N2 [MCoAA-02] (cyclo(ACICRY[dW]KVCGYHLNQPFGCPKILKKCRRDSDCPG); disulfide 2-20, 4-27, 10-33) as the molecule, how does the IC50 [2, 7] read?
Its IC50 is 19.75 ± 0.07 µM.

What about the IC50 [3, 8] of the same molecule?
The IC50 was greater than 100 µM.

What about the IC50 [4, 9] of the same molecule?
The IC50 was 27.06 ± 0.06 µM.

And the IC50 [5, 10]?
Its IC50 is 35.44 ± 0.13 µM.

What about the “stability in human serum over 24 h” value [6, 11] of the same molecule?
Its value is “stable”.

What about the “percentage remaining in human serum at 24 h, excess over sunitinib” value ([6]; human serum, 300 μM, 24 h, pellet dissolved in 8 M guanidine hydrochloride, RP-HPLC 215 nm, triplicate) of the same molecule?
The value was “approximately 20%”.

What about the remaining at 24 h, 300 μM ([6]; human, serum) of the same molecule?
Its remaining at 24 h, 300 μM is greater than 75%.

For CC(C)[C@H](NC(=O)[C@H](CCCCN)NC(=O)[C@@H](Cc1c[nH]c2ccccc12)NC(=O)[C@@H](N)Cc1ccc(O)cc1)C(=O)O [SST-01, reference compound] (H-Y[dW]KV-OH; N-terminus assumed), which IC50 ([2]; 4 h) is on record?
The IC50 was greater than 100 µM.

What about the IC50 ([3]; 4 h) of the same molecule?
The IC50 was greater than 100 µM.

What about the IC50 ([4]; 4 h) of the same molecule?
Its IC50 is 57.54 ± 0.04 µM.

And the IC50 ([5]; 4 h)?
The IC50 was greater than 100 µM.

And the “stability in human serum over 24 h” value [6, 11]?
The value was “more stable than PEDF”.

With CCN(CC)CCNC(=O)c1c(C)[nH]c(/C=C2\C(=O)Nc3ccc(F)cc32)c1C [sunitinib, Sunitinib malate, reference compound] as the molecule, how does the inhibition at 10 µM ([1]; Homo sapiens, HUVEC, 10 μM, 0.3 nM VEGF) read?
Its inhibition at 10 µM is 100%.

And the IC50 ([2]; Homo sapiens, HT-29, 48 h, read-out: IC50 ± S.D., 48 hours, HT-29)?
Its IC50 is 1.43 ± 0.24 µM.

And the IC50 ([3]; Homo sapiens, MCF7, 48 h, read-out: IC50 ± S.D., 48 hours, MCF-7)?
The IC50 was 17.07 ± 0.11 µM.

And the IC50 ([4]; Homo sapiens, HUVEC, 48 h, read-out: IC50 ± S.D., 48 hours, HUVEC)?
Its IC50 is 19.1 ± 0.46 µM.

What about the IC50 ([5]; Homo sapiens, PC-3, 48 h, read-out: IC50 ± S.D., 48 hours, PC3) of the same molecule?
Its IC50 is 16.2 ± 0.26 µM.

— article PMC5062114, “Dual-targeting anti-angiogenic cyclic peptides as potential drug leads for cancer therapy” (Scientific Reports, 2016)
